Results taken from the supplement of paper PMC13380429.

Assays:
Conditions in all cases: 72 h
Calu-3 [1] = assay: relative viability EC50 (midpoint between 100% and the lowest measured viability); higher = less toxic
Vero E6 [2] = assay: as above
HepG2 [3] = assay: as above
U2OS [4] = assay: as above
Caco-2 [5] = assay: as above
Calu-3 [6] = assay: drug sensitivity score (DSS) for viability; higher = more toxic; extreme values may be limits of the assay
Vero E6 [7] = assay: as above
HepG2 [8] = assay: as above
U2OS [9] = assay: as above
Caco-2 [10] = assay: as above
Calu-3 [11] = assay: cell viability relative to DMSO; higher = less toxic
Vero E6 [12] = assay: as above
HepG2 [13] = assay: as above
U2OS [14] = assay: as above
Caco-2 [15] = assay: as above

SMILES | relative viability EC50 (Calu-3 [1]) | relative viability EC50 (Vero E6 [2]) | relative viability EC50 (HepG2 [3]) | relative viability EC50 (U2OS [4]) | relative viability EC50 (Caco-2 [5]) | drug sensitivity score (Calu-3 [6]) | drug sensitivity score (Vero E6 [7]) | drug sensitivity score (HepG2 [8]) | drug sensitivity score (U2OS [9]) | drug sensitivity score (Caco-2 [10]) | cell viability (Calu-3 [11]; 1 nM) | cell viability (Calu-3 [11]; 10 nM) | cell viability (Calu-3 [11]; 100 nM) | cell viability (Calu-3 [11]; 1000 nM) | cell viability (Calu-3 [11]; 10000 nM) | cell viability (Vero E6 [12]; 1 nM) | cell viability (Vero E6 [12]; 10 nM) | cell viability (Vero E6 [12]; 100 nM) | cell viability (Vero E6 [12]; 1000 nM) | cell viability (Vero E6 [12]; 10000 nM) | cell viability (HepG2 [13]; 1 nM) | cell viability (HepG2 [13]; 10 nM) | cell viability (HepG2 [13]; 100 nM) | cell viability (HepG2 [13]; 1000 nM) | cell viability (HepG2 [13]; 10000 nM) | cell viability (U2OS [14]; 1 nM) | cell viability (U2OS [14]; 10 nM) | cell viability (U2OS [14]; 100 nM) | cell viability (U2OS [14]; 1000 nM) | cell viability (U2OS [14]; 10000 nM) | cell viability (Caco-2 [15]; 1 nM) | cell viability (Caco-2 [15]; 10 nM) | cell viability (Caco-2 [15]; 100 nM) | cell viability (Caco-2 [15]; 1000 nM) | cell viability (Caco-2 [15]; 10000 nM)
O=C(Oc1ccc([N+](=O)[O-])cc1)N1CCC(C(O)(c2ccc3c(c2)OCO3)c2ccc3c(c2)OCO3)CC1 [JZL-184] | > 10 µM | > 10 µM | > 10 µM | > 10 µM | > 10 µM | 0 | 0 | 0 | 0 | 0 | 105% | 115% | 100% | 91.2% | 117% | 106% | 97.2% | 91.9% | 96.4% | 91% | 109% | 114% | 90.5% | 116% | 97.9% | 94.9% | 100% | 98% | 96.2% | 97.9% | 104% | 98.5% | 100% | 91.5% | 104%
COc1ccc(Nc2nccc(NCCO)n2)cc1 [cardiogenol-C] | > 10 µM | > 10 µM | > 10 µM | > 10 µM | > 10 µM | 0 | 0 | 0 | 0 | 0 | 94.4% | 92.7% | 92.5% | 92.5% | 102% | 94.4% | 105% | 94.8% | 104% | 100% | 93.4% | 93.1% | 93.4% | 108% | 102% | 97.7% | 97.2% | 102% | 96.1% | 98.2% | 105% | 87.7% | 101% | 95.8% | 103%
C[Se]C[C@H](N)C(=O)O [Se-methylselenocysteine] | > 10 µM | > 10 µM | > 10 µM | > 10 µM | > 10 µM | 0 | 0 | 0 | 0 | 0 | 108% | 113% | 98.1% | 109% | 96.4% | 104% | 100% | 99.2% | 102% | 101% | 101% | 101% | 104% | 93% | 108% | 92.4% | 102% | 95.5% | 99.7% | 97.7% | 94.3% | 99.1% | 97.2% | 102% | 91.4%
COc1ccc2c(c1)c(C1=C(c3c[nH]c4ccccc34)C(=O)NC1=O)cn2CCCN(C)C [go-6983] | > 10 µM | > 10 µM | 3.52 µM | > 10 µM | > 10 µM | 1.2 | 0.7 | 3.4 | 1.6 | 0.2 | 98.9% | 85.1% | 99% | 83.9% | 84% | 108% | 104% | 97.7% | 103% | 75.3% | 105% | 94.7% | 87.1% | 105% | 31.7% | 94.4% | 92.2% | 104% | 91.4% | 79.6% | 110% | 95.6% | 108% | 101% | 85.7%
O=C1O[C@H]([C@@H](O)CO)C([O-])=C1O.[Na+] [sodium-ascorbate] | > 10 µM | > 10 µM | > 10 µM | > 10 µM | > 10 µM | 0 | 0 | 0 | 0 | 0 | 100% | 102% | 97% | 98.5% | 102% | 97.5% | 107% | 97.2% | 100% | 106% | 96.8% | 104% | 92.1% | 110% | 111% | 97.9% | 89.9% | 101% | 97.7% | 103% | 91.7% | 93.1% | 98.9% | 95.2% | 102%
CC(=N)NCc1cccc(CN)c1 [1400W] | > 10 µM | > 10 µM | > 10 µM | > 10 µM | > 10 µM | 0 | 0 | 0 | 0 | 0 | 102% | 93% | 91.2% | 108% | 109% | 103% | 98.3% | 99.9% | 102% | 97.7% | 102% | 100% | 105% | 94.4% | 97% | 103% | 94.6% | 104% | 98% | 104% | 112% | 92.6% | 103% | 92.2% | 103%
CCN(CCNC(=O)Nc1ccccc1Br)c1cccc(C)c1 | > 10 µM | > 10 µM | > 10 µM | > 10 µM | > 10 µM | 0 | 0 | 0 | 0 | 0 | 93.6% | 96.3% | 93.7% | 91.3% | 101% | 108% | 114% | 105% | 120% | 97.8% | 95.1% | 101% | 90.8% | 99.6% | 96.5% | 98.9% | 103% | 97% | 99.5% | 93.5% | 92.4% | 102% | 93.1% | 102% | 90.5%
CN1CCCCC1CCN1c2ccccc2Sc2ccc([S+](C)[O-])cc21 (stereo not given) [mesoridazine] | > 10 µM | > 10 µM | > 10 µM | > 10 µM | > 10 µM | 0 | 0 | 0 | 0 | 0 | 101% | 108% | 97.7% | 105% | 120% | 93.2% | 96.7% | 91% | 90.1% | 96.5% | 108% | 93.2% | 120% | 106% | 111% | 95.3% | 101% | 96.7% | 97.5% | 101% | 93.4% | 93.9% | 90.5% | 97% | 110%
Cc1ccccc1-c1cc(N2CCN(C)CC2)ncc1N(C)C(=O)C(C)(C)c1cc(C(F)(F)F)cc(C(F)(F)F)c1 [netupitant] | > 10 µM | > 10 µM | > 10 µM | > 10 µM | > 10 µM | 0 | 0 | 0 | 0 | 0 | 94.8% | 101% | 105% | 112% | 102% | 106% | 108% | 103% | 104% | 97.5% | 95% | 98.2% | 104% | 97.9% | 95.6% | 102% | 99% | 101% | 99.4% | 96.5% | 93.2% | 92.6% | 91.5% | 96% | 95.2%
Fc1cc(F)c2c(c1)[C@H]1C=CC[C@H]1C(c1cccnc1)N2 (stereo not given in full) [Golgicide A] | 3.01 µM | 3.2 µM | 3.48 µM | 3.46 µM | 2.97 µM | 4.7 | 5.3 | 4.5 | 5.1 | 4 | 103% | 108% | 108% | 98.2% | 19% | 111% | 108% | 105% | 100% | 4.4% | 121% | 108% | 102% | 105% | 10.9% | 103% | 101% | 105% | 105% | 1.7% | 108% | 103% | 101% | 98.2% | 31.5%
Cc1nc2c([nH]1)-c1ccccc1N(C(=O)c1ccc(NC(=O)c3ccccc3-c3ccccc3)cc1)CC2 [conivaptan] | > 10 µM | > 10 µM | > 10 µM | > 10 µM | > 10 µM | 0 | 0 | 0 | 0 | 0 | 102% | 106% | 105% | 94.1% | 96.6% | 97.9% | 100% | 97.3% | 89.4% | 100% | 97.9% | 97.1% | 101% | 93.6% | 101% | 101% | 103% | 96.3% | 104% | 97.6% | 97.5% | 94.3% | 91.2% | 102% | 91.7%
CCCN(CCC)C1Cc2cc(OC)c(OC)cc2C1 | > 10 µM | > 10 µM | > 10 µM | > 10 µM | > 10 µM | 0 | 0 | 0 | 0 | 0 | 96.9% | 108% | 92.3% | 93.7% | 108% | 103% | 103% | 103% | 102% | 99% | 96.1% | 106% | 101% | 99.8% | 94.6% | 102% | 97.5% | 100% | 99.5% | 104% | 96.6% | 99.6% | 94.1% | 98.3% | 89.9%
CNC(=O)c1ccccc1Nc1nc(Nc2ccc(N3CCOCC3)cc2OC)ncc1Cl [NVP-TAE226] | 0.706 µM | 0.645 µM | 0.356 µM | 1.26 µM | 0.295 µM | 6.9 | 6.8 | 13.5 | 7.9 | 9.8 | 93.1% | 90.8% | 86.2% | 74.5% | 41.9% | 99.6% | 97.7% | 96.3% | 66.7% | 48.4% | 114% | 99.6% | 91.3% | 33.1% | 20.8% | 99.9% | 100% | 94.1% | 69% | 22% | 96% | 104% | 88.3% | 54.1% | 44.2%
CC(C)=CCC[C@](C)(O[C@@H]1O[C@H](CO)[C@@H](O)[C@H](O)[C@H]1O)[C@H]1CC[C@]2(C)[C@@H]1[C@H](O)C[C@@H]1[C@@]3(C)CC[C@H](O[C@@H]4O[C@H](CO)[C@@H](O)[C@H](O)[C@H]4O[C@@H]4O[C@H](CO)[C@@H](O)[C@H](O)[C@H]4O)C(C)(C)[C@@H]3CC[C@]12C [ginsenoside-RD] | > 10 µM | > 10 µM | > 10 µM | > 10 µM | > 10 µM | 0 | 0 | 0.3 | 0 | 0 | 105% | 103% | 101% | 107% | 99.8% | 99.6% | 101% | 97.2% | 100% | 99.3% | 94.2% | 97.3% | 101% | 88.9% | 89.6% | 102% | 98.9% | 101% | 100% | 102% | 105% | 98.7% | 94.4% | 92.3% | 104%
